Source: patent US11787762B2, “Tetralin and tetrahydroquinoline compounds as inhibitors of HIF-2alpha” (ARCUS BIOSCIENCES, INC., priority 2020, dated 2023)

What was measured:
[1] = target: T1, Histidine tagged HIF-2α protein containing PAS-B domain (240-350) (Homo sapiens, UniProt Q99814); test: HIF-2α Scintillation Proximity Assay (SPA) binding assay; settings: 50 nM HIF-2α protein, 25 nM 3H-tracer
T1 construct: HIF-2α protein containing PAS-B domain (240-350); made in house
In short: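 His-tagged HIF-2α PAS-B (240-350), 50 nM final, preincubated with compound 1 h at room temperature in 25 mM Tris-HCl pH 7.4, 150 mM NaCl, 0.15% BSA, 0.001% Tween 20, 2% DMSO. Copper-chelate SPA beads (3 ug/well, 45 min) and 25 nM tritiated N-(3-chlorophenyl)-4-nitro-2,1,3-benzoxadiazol-5-amine tracer followed; IC50 from four-parameter fits.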

HIF-2α = target: T2, HIF-2α (Homo sapiens, UniProt Q99814); test: HIF-2α luciferase reporter assay in HIF-Luc-786-O cells; assay type: cell-based
T2 construct: host or cells: 786-O cells stably transduced with Cignal Lenti HIF Luc Reporter (only the reporter was introduced, not HIF-2α)
In short: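 786-O cells stably carrying a HIF-responsive luciferase reporter, 20,000/well in OptiMem with 1% DMSO, exposed to compound up to 50 uM for 20 h at 37 °C. ONE-Glo luminescence normalised to DMSO and no-cell controls; IC50 by four-parameter fit.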

T1 sequence (Q99814 240-350): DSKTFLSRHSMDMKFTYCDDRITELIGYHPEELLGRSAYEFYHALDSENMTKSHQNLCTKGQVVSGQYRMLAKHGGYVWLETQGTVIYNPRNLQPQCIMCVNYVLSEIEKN
T2 sequence (Q99814 whole entry): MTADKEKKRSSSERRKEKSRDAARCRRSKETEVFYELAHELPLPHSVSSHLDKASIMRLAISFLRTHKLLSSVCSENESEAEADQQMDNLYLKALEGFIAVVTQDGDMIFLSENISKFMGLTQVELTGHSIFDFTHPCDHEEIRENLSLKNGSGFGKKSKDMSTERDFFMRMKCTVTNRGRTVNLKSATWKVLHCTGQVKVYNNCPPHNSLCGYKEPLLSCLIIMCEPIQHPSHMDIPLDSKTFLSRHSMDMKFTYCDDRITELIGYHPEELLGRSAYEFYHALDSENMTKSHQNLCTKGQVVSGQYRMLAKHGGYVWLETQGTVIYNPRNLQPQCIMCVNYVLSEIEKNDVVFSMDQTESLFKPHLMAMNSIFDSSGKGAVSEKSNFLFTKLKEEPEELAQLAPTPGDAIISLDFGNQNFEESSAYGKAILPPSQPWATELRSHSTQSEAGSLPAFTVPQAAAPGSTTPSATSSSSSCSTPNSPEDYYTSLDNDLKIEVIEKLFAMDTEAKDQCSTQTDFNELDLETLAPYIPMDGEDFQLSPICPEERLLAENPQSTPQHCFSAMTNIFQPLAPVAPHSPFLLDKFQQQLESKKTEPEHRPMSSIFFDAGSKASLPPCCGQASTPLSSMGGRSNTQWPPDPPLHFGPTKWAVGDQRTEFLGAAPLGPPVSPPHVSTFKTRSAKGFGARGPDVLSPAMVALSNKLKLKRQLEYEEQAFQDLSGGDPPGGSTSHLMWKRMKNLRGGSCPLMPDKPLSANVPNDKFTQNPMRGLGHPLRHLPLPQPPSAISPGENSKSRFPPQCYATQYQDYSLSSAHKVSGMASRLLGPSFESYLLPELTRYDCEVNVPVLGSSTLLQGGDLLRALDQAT

IC50 ([1]; Table 2)	IC50 (HIF-2α; Table 2, 20 hours incubation)	IC50 ([1]; Table 3)	IC50 (HIF-2α; Table 3, 20 hours incubation)	SMILES
< 0.1 µM	< 0.1 µM	–	–	N#Cc1cc(F)cc2c1[C@@H](c1ccc(S(=O)(=O)C(F)(F)F)c3c1C[C@@H](F)[C@H]3O)CC[C@@H]2F [Example 136, (5S,8R)-3,5-Difluoro-8-[(1S,2R)-2-fluoro-1-hydroxy-7-(trifluoromethylsulfonyl)-2,3-dihydro-1H-inden-4-yl]-5,6,7,8-tetrahydronaphthalene-1-carbonitrile]
< 0.1 µM	< 0.1 µM	–	–	N#Cc1cc(F)cc2c1[C@@H](c1ccc(C(F)(F)F)c(Cl)c1C#N)CC[C@@H]2F [Example 137, (5S,8R)-8-[3-Chloro-2-cyano-4-(trifluoromethyl)phenyl]-3,5-difluoro-5,6,7,8-tetrahydronaphthalene-1-carbonitrile]
> 1 µM	0.1 to 1 µM	–	–	N#Cc1cc(F)cc2c1[C@@H](c1ccc(C(F)(F)F)c(Cl)c1C#N)CC[C@H]2F [Example 138, (5R,8R)-8-[3-chloro-2-cyano-4-(trifluoromethyl)phenyl]-3,5-difluoro-5,6,7,8-tetrahydronaphthalene-1-carbonitrile]
< 0.1 µM	< 0.1 µM	–	–	Cc1c([C@H]2CC[C@H](F)c3cc(F)cc(C#N)c32)cnc(C(C)(F)F)c1F [Example 139, (5S,8S)-8-[6-(1,1-difluoroethyl)-5-fluoro-4-methylpyridin-3-yl]-3,5-difluoro-5,6,7,8-tetrahydronaphthalene-1-carbonitrile]
< 0.1 µM	< 0.1 µM	–	–	CS(=O)(=O)c1ccc([C@H]2CCCc3cc(F)cc(C#N)c32)c2c1[C@H](O)[C@H](F)[C@@H]2F [Example 140, (8R)-8-[(1S,2S,3R)-2,3-difluoro-1-hydroxy-7-methylsulfonyl-2,3-dihydro-1H-inden-4-yl]-3-fluoro-5,6,7,8-tetrahydronaphthalene-1-carbonitrile]
< 0.1 µM	< 0.1 µM	–	–	N#Cc1cc(F)cc2c1[C@@H](c1ccc(C(F)(F)F)c3c1C(=O)OC3)CC[C@@H]2F [Example 142, (5S,8R)-3,5-Difluoro-8-[3-oxo-7-(trifluoromethyl)-1,3-dihydro-2-benzofuran-4-yl]-5,6,7,8-tetrahydronaphthalene-1-carbonitrile]
< 0.1 µM	< 0.1 µM	–	–	Cn1nccc1-c1ccc([C@H]2CC[C@H](F)c3cc(F)cc(C#N)c32)c2c1[C@H](O)C(F)(F)C2 [Example 143, (5S,8R)-8-[(1S)-2,2-difluoro-1-hydroxy-7-(2-methylpyrazol-3-yl)-1,3-dihydroinden-4-yl]-3,5-difluoro-5,6,7,8-tetrahydronaphthalene-1-carbonitrile]
–	–	< 0.1 µM	< 0.1 µM	Cn1ncc(C#N)c1-c1ccc([C@H]2CC[C@H](F)c3cc(F)cc(C#N)c32)c2c1[C@H](O)C(F)(F)C2 [Example 145, 5-[(3S)-7-[(1R,4S)-8-cyano-4,6-difluoro-1,2,3,4-tetrahydronaphthalen-1-yl]-2,2-difluoro-3-hydroxy-1,3-dihydroinden-4-yl]-1-methylpyrazole-4-carbonitrile]
–	–	< 0.1 µM	< 0.1 µM	Cn1nncc1-c1ccc([C@H]2CC[C@H](F)c3cc(F)cc(C#N)c32)c2c1[C@H](O)C(F)(F)C2 [Example 147, (5S,8R)-8-[(1S)-2,2-difluoro-1-hydroxy-7-(3-methyltriazol-4-yl)-1,3-dihydroinden-4-yl]-3,5-difluoro-5,6,7,8-tetrahydronaphthalene-1-carbonitrile]
–	–	< 0.1 µM	< 0.1 µM	Cc1cnn(C)c1-c1ccc([C@H]2CC[C@H](F)c3cc(F)cc(C#N)c32)c2c1[C@H](O)[C@H](F)C2 [Example 152]
–	–	< 0.1 µM	< 0.1 µM	N#Cc1cc(F)cc2c1[C@@H](c1ccc(-c3cccnc3N)c3c1CC(F)(F)[C@H]3O)CC[C@@H]2F [Example 153, (5S,8R)-8-[(1S)-7-(2-aminopyridin-3-yl)-2,2-difluoro-1-hydroxy-1,3-dihydroinden-4-yl]-3,5-difluoro-5,6,7,8-tetrahydronaphthalene-1-carbonitrile]
–	–	< 0.1 µM	< 0.1 µM	Cc1cn[nH]c1-c1ccc([C@H]2CC[C@H](F)c3cc(F)cc(C#N)c32)c2c1[C@H](O)C(F)(F)C2 [Example 154, (5S,8R)-8-[(1S)-2,2-difluoro-1-hydroxy-7-(4-methyl-1H-pyrazol-5-yl)-1,3-dihydroinden-4-yl]-3,5-difluoro-5,6,7,8-tetrahydronaphthalene-1-carbonitrile]
–	–	< 0.1 µM	< 0.1 µM	Cn1nccc1-c1ccc([C@H]2CC[C@H](F)c3cc(F)cc(C#N)c32)c2c1[C@H](O)[C@H](F)C2 [Example 157, (5S,8R)-3,5-difluoro-8-[(1S,2R)-2-fluoro-1-hydroxy-7-(2-methylpyrazol-3-yl)-2,3-dihydro-1H-inden-4-yl]-5,6,7,8-tetrahydronaphthalene-1-carbonitrile]
–	–	< 0.1 µM	< 0.1 µM	Cc1ncccc1-c1ccc([C@H]2CC[C@H](F)c3cc(F)cc(C#N)c32)c2c1[C@H](O)C(F)(F)C2 [Example 159, (5S,8R)-8-[(1S)-2,2-difluoro-1-hydroxy-7-(2-methylpyridin-3-yl)-1,3-dihydroinden-4-yl]-3,5-difluoro-5,6,7,8-tetrahydronaphthalene-1-carbonitrile]
–	–	< 0.1 µM	< 0.1 µM	N#Cc1ccccc1-c1ccc([C@H]2CC[C@H](F)c3cc(F)cc(C#N)c32)c2c1[C@H](O)C(F)(F)C2 [Example 162, (5S,8R)-8-[(1S)-7-(2-cyanophenyl)-2,2-difluoro-1-hydroxy-1,3-dihydroinden-4-yl]-3,5-difluoro-5,6,7,8-tetrahydronaphthalene-1-carbonitrile]
–	–	< 0.1 µM	< 0.1 µM	Cc1c(-c2ccc([C@H]3CC[C@H](F)c4cc(F)cc(C#N)c43)c3c2[C@H](O)C(F)(F)C3)cnn1C [Example 166, (5S,8R)-8-[(1S)-7-(1,5-dimethyl-1H-pyrazol-4-yl)-2,2-difluoro-1-hydroxy-2,3-dihydro-1H-inden-4-yl]-3,5-difluoro-5,6,7,8-tetrahydronaphthalene-1-carbonitrile]
–	–	< 0.1 µM	< 0.1 µM	Cc1ncsc1-c1ccc([C@H]2CC[C@H](F)c3cc(F)cc(C#N)c32)c2c1[C@H](O)C(F)(F)C2 [Example 167, (5S,8R)-8-[(1S)-2,2-difluoro-1-hydroxy-7-(4-methyl-1,3-thiazol-5-yl)-2,3-dihydro-1H-inden-4-yl]-3,5-difluoro-5,6,7,8-tetrahydronaphthalene-1-carbonitrile]
–	–	< 0.1 µM	< 0.1 µM	N#Cc1cc(F)cc2c1[C@@H](c1ccc(-c3cccnc3CF)c3c1CC(F)(F)[C@H]3O)CC[C@@H]2F [Example 173]
–	–	< 0.1 µM	< 0.1 µM	Cn1ncnc1-c1ccc([C@H]2CC[C@H](F)c3cc(F)cc(C#N)c32)c2c1[C@H](O)C(F)(F)C2 [Example 174, (5S,8R)-8-[(1S)-2,2-difluoro-1-hydroxy-7-(2-methyl-1,2,4-triazol-3-yl)-1,3-dihydroinden-4-yl]-3,5-difluoro-5,6,7,8-tetrahydronaphthalene-1-carbonitrile]
–	–	< 0.1 µM	< 0.1 µM	CS(=O)(=O)c1c(Cl)cc([C@H]2CC[C@H](F)c3cc(F)cc(C#N)c32)c2c1[C@H](O)[C@H](F)C2 [Example 213, (5S,8R)-8-[(1S,2R)-6-Chloro-2-fluoro-1-hydroxy-7-methylsulfonyl-2,3-dihydro-1H-inden-4-yl]-3,5-difluoro-5,6,7,8-tetrahydronaphthalene-1-carbonitrile]
